Data taken from patent US8148388B2, “2,4 (4,6) pyrimidine derivatives” (Janssen Pharmaceutica, N.V., priority 2004, dated 2012).

What was measured:
Assay type in all cases: biochemical
[1] = molecular target: Lyn (h) (Homo sapiens, UniProt P07948); test: Lyn human kinase assay (glass-fiber filter); conditions: test concentration of 10^−6M; for inhibition at 1 µM: read-out: C10 score (inhibition of Lyn human)
Protocol: (§1) In the glass-fiber filter technology the activity of the kinase of interest is measured using an appropriate substrate that is incubated with the aforementioned kinase protein in the presence of (^33P) radiolabeled ATP. (^33P) Phosphorylation of the substrate is subsequently measured as radioactivity bound on a glass fiber-filter.
(§2) All kinases are pre-diluted to a 10× working concentration prior to addition into the assay. The composition of the dilution buffer for each kinase is detailed below.
In a final reaction volume of […] (h) (5-10 mU) is incubated with 50 mM Tris pH 7.5, 0.1 mM EGTA, 0.1 mM Na3VO4, 0.1% O-mercaptoethanol, 0.1 mg/ml poly(Glu, Tyr) 4:1, 10 mM MgAcetate and [γ-^33P-ATP] (specific activity approx. 500 cpm/pmol, concentration as required). The reaction is initiated by the addition of the MgATP mix. After incubation for 40 minutes at room temperature, the reaction is stopped by the addition of 5 μl of a 3% phosphoric acid solution. 10 μl of the reaction is then spotted onto a Filtennat A and washed three times for 5 minutes in 75 mM phosphoric acid and once in methanol prior to drying and scintillation counting.

[2] = molecular target: EGFR (h) (Homo sapiens, UniProt P00533); test: EGFR human kinase assay (glass-fiber filter); conditions: test concentration of 10^−6M; for inhibition at 1 µM: read-out: C4 score (inhibition of EGFR human)
Protocol: as §1, §2
(§3) In a final reaction volume of 25 μl, EGFR (h) (5-10 mU) is incubated with 8 mM MOPS pH 7.0, 0.2 mM EDTA, 10 mM MnCl2, 0.1 mg/ml poly(Glu, Tyr) 4:1, 10 mM MgAcetate and [γ-^33P-ATP] (specific activity approx. 500 cpm/pmol, concentration as required). The reaction is initiated by the addition of the MgATP mix. After incubation for 40 minutes at room temperature, the reaction is stopped by the addition of 5 μl of a 3% phosphoric acid solution. 10 μl of the reaction is then spotted onto a Filtermat A and washed three times for 5 minutes in 75 mM phosphoric acid and once in methanol prior to drying and scintillation counting.

[3] = molecular target: Fms (h) (Homo sapiens, UniProt P07333); test: Fms human kinase assay (glass-fiber filter); conditions: test concentration of 10^−6M; read-out: C7 score (inhibition of Fms human)
Protocol: (§4) The in vitro inhibition of a panel of kinases was assessed using either the glass-fiber filter technology as described by Davies, S. P. et al., Biochem J. (2000), 351; p. 95-105.
as §1, §2
as §3, with “Fms” for “EGFR”, “250 μM […],” for “10 mM MnCl2, 0.1 mg/ml poly(Glu, Tyr) 4:1,”, “P30 filtermat” for “Filtermat A”

[4] = molecular target: Abl (h) (Homo sapiens, UniProt P00519); test: Abl human kinase assay (glass-fiber filter); conditions: test concentration of 10^−6M; for inhibition at 1 µM: read-out: C1 score (inhibition of Abl human)
Protocol: as §1, §2
(specific activity approx. 500 cpm/pmol, concentration as required). The reaction is initiated by the addition of the MgATP mix. After incubation for 40 minutes at room temperature, the reaction is stopped by the addition of 5 μl of a 3% phosphoric acid solution. 10 μl of the reaction is then spotted onto a P30 filtermat and washed three times for 5 minutes in 75 mM phosphoric acid and once in methanol prior to drying and scintillation counting.

[5] = molecular target: Lck (h) (Homo sapiens, UniProt P06239); test: Lck human kinase assay (glass-fiber filter); conditions: test concentration of 10^−6M; for inhibition at 1 µM: read-out: C9 score (inhibition of Lck human)
Protocol: (§5) The in vitro inhibition of a panel of kinases was assessed using either the glass-fiber filter technology as described by Davies, S. P. et al., Biochem J. […] In the glass-fiber filter technology the activity of the kinase of interest is measured using an appropriate substrate that is incubated with the aforementioned kinase protein in the presence of (^33P) radiolabeled ATP. (^33P) Phosphorylation of the substrate is subsequently measured as radioactivity bound on a glass fiber-filter. All kinases are pre-diluted to a 10× working concentration prior to addition into the assay. The composition of the dilution buffer for each kinase is detailed below. [table] […] The reaction is initiated by the addition of the MgATP mix. […] 10 μl of the reaction is then spotted onto a P30 filtermat and washed three times for 5 minutes in 75 mM phosphoric acid and once in methanol prior to drying and scintillation counting.

[6] = molecular target: Fes (h) (Homo sapiens, UniProt P07332); test: Fes human kinase assay (glass-fiber filter); conditions: test concentration of 10^−6M; for inhibition at 1 µM: read-out: C4 score (inhibition of Fes human)
Protocol: as §1, §2
as §3, with “Fes” for “EGFR”, “EDTA,” for “EDTA, 10 mM MnCl2,”

[7] = molecular target: Yes (h) (Homo sapiens, UniProt P07947); test: Yes human kinase assay (glass-fiber filter); conditions: test concentration of 10^−6M; for inhibition at 1 µM: read-out: C11 score (inhibition of Yes human)
Protocol: as §1, §2
as §3, with “Yes” for “EGFR”, “EDTA,” for “EDTA, 10 mM MnCl2,”, “[…],” for “cpm/pmol,”

[8] = molecular target: Flt3 (h) (Homo sapiens, UniProt P36888); test: Flt3 human kinase assay (glass-fiber filter); conditions: test concentration of 10^−6M; for inhibition at 1 µM: read-out: C6 score (inhibition of Flt3 human)
Protocol: as §4, §1, §2
as §3, with “Flt3” for “EGFR”, “50 μM […],” for “10 mM MnCl2, 0.1 mg/ml poly(Glu, Tyr) 4:1,”, “P30 filtermat” for “Filtermat A”

[9] = molecular target: GSK3B (h) (Homo sapiens, UniProt P49841); test: GSK3β human kinase assay (glass-fiber filter); conditions: test concentration of 10^−6M
Protocol: as §4, §1, §2
as §3, with “GSK3B” for “EGFR”, “20 μM […](p)EDEEE (phospho GS2 peptide),” for “10 mM MnCl2, 0.1 mg/ml poly(Glu, Tyr) 4:1,”, “P30 filtermat” for “Filtermat A”, “50” for “75”

[10] = molecular target: cSRC (h) (Homo sapiens, UniProt P12931); test: cSRC human kinase assay (glass-fiber filter); conditions: test concentration of 10^−6M
Protocol: as §5, with “below.” for “below. [table]”

Sequence of Abl (h) (P00519 whole entry): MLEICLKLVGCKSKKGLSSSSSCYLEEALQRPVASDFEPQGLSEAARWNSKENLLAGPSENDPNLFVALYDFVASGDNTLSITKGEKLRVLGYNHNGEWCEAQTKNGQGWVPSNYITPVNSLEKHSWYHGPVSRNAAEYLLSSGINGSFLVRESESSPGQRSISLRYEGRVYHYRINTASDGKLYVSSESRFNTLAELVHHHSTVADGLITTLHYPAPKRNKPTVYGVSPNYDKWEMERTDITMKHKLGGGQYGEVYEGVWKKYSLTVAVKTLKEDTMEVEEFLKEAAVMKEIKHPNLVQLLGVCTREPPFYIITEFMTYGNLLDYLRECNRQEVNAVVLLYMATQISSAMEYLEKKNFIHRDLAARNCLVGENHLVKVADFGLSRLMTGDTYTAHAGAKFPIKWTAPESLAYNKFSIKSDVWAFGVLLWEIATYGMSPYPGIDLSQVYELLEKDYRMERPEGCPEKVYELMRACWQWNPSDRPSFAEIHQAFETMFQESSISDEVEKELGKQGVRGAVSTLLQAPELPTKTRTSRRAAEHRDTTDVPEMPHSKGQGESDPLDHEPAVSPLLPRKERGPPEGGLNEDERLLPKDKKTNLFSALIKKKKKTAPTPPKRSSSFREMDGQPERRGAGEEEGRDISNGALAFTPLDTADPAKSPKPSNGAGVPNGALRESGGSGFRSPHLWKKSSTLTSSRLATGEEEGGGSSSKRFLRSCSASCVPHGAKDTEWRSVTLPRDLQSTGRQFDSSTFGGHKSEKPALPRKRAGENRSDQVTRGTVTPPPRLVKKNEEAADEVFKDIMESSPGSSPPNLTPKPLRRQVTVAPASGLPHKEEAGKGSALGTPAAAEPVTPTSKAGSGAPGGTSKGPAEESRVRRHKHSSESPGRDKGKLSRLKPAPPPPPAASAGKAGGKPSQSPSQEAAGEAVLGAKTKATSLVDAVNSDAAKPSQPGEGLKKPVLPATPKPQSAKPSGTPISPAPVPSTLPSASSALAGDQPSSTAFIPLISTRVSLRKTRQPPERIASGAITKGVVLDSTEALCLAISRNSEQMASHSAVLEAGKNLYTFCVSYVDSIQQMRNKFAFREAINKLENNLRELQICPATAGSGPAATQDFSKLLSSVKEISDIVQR
Sequence of EGFR (h) (P00533 25-1210): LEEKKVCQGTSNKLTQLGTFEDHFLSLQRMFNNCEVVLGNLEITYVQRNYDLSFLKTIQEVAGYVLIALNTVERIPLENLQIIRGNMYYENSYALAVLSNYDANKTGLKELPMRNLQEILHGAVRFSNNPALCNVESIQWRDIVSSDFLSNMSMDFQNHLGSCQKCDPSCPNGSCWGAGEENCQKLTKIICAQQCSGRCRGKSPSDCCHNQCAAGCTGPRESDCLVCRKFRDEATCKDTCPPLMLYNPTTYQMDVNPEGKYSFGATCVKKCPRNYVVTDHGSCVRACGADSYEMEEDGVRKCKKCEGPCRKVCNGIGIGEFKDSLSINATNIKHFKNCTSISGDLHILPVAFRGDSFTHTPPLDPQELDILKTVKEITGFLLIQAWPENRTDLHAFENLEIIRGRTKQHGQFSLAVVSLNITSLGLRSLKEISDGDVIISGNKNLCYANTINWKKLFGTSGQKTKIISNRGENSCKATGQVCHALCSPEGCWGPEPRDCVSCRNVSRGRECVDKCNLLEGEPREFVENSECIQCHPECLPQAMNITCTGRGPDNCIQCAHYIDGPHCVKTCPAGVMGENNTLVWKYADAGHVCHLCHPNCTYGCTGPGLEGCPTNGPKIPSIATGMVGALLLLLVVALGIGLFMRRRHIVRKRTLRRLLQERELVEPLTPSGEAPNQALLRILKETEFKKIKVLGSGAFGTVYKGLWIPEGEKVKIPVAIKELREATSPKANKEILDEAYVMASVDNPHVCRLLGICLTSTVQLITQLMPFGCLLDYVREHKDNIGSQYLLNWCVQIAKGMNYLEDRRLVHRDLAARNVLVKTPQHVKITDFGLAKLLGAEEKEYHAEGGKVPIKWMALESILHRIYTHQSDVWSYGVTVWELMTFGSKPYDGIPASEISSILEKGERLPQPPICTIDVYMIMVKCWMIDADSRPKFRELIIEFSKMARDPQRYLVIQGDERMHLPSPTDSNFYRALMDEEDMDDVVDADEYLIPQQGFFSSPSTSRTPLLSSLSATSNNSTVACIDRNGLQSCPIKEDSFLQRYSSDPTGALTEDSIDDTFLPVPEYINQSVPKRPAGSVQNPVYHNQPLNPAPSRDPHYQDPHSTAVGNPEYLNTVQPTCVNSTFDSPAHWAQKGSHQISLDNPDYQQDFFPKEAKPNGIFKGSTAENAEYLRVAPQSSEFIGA
Sequence of Fes (h) (P07332 whole entry): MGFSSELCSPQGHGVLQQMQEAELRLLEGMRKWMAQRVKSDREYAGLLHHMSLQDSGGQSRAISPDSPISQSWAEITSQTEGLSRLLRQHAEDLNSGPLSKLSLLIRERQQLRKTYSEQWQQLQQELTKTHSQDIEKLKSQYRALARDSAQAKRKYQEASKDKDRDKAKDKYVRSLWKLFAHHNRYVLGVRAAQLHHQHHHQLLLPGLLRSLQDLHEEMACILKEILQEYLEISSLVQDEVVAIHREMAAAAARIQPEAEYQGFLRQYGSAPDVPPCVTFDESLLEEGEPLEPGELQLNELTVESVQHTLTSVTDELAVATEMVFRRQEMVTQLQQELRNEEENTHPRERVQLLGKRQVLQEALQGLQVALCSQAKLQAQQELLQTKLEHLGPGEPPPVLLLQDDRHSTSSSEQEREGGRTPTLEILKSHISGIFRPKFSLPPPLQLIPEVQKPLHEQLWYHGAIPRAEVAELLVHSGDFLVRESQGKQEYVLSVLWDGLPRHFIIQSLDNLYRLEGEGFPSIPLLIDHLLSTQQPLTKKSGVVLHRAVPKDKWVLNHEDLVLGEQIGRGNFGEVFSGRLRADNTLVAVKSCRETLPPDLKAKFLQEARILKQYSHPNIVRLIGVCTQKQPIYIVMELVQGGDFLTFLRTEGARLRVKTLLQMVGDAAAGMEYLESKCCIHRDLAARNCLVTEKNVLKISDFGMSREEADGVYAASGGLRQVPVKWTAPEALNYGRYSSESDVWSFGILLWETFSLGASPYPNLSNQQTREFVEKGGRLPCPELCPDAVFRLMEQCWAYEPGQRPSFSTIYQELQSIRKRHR
Sequence of Yes (h) (P07947 whole entry): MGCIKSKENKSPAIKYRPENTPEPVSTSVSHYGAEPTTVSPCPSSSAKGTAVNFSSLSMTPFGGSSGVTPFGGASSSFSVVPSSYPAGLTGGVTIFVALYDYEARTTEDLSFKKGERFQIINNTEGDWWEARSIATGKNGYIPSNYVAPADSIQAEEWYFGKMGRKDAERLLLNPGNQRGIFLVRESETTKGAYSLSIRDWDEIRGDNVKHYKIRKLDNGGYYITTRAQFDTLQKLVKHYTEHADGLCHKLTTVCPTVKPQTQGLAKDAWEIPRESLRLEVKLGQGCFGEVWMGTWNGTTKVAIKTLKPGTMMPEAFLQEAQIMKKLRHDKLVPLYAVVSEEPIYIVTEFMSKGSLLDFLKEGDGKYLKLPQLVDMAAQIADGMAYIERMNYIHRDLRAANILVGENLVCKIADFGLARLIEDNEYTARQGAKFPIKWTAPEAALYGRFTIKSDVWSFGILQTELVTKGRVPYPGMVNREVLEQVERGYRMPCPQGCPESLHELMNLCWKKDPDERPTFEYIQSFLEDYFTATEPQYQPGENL
Sequence of Fms (h) (P07333 20-972): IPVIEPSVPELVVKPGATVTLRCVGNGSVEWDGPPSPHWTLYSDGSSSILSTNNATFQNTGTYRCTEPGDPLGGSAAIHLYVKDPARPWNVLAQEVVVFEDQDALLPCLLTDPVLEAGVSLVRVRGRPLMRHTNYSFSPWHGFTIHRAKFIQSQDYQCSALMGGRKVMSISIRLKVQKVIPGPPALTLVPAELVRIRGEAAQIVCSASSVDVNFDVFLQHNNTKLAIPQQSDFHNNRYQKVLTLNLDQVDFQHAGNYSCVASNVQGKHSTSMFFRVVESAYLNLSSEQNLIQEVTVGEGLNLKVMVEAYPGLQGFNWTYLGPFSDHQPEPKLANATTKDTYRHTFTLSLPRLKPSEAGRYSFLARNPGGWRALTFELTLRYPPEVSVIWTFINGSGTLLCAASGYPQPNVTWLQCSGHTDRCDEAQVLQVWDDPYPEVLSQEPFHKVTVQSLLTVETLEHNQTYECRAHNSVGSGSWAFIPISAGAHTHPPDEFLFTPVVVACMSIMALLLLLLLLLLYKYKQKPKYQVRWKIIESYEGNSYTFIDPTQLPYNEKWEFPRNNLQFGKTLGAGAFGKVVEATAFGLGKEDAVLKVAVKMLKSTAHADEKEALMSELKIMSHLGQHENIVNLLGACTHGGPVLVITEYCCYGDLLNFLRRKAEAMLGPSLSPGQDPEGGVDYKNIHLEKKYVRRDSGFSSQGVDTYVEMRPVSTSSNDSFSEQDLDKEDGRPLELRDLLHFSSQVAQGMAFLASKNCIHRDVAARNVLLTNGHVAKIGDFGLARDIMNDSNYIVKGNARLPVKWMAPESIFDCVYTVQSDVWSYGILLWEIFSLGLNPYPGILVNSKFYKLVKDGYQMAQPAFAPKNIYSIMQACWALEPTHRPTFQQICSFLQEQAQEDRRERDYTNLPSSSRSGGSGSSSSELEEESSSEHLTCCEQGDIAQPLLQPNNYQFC
Sequence of GSK3B (h) (P49841 whole entry): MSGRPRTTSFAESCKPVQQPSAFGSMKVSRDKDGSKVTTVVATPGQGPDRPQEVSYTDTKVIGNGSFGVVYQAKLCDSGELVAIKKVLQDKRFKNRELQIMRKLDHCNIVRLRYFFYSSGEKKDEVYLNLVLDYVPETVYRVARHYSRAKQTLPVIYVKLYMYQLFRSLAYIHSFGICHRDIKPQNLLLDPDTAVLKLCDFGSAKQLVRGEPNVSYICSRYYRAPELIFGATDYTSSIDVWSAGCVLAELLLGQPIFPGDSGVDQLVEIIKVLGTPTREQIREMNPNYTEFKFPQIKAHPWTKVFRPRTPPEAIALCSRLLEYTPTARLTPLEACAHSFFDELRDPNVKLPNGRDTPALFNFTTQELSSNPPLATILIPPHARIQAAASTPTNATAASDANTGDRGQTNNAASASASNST

Structure (SMILES)	inhibition at 1 µM [1] [%]	inhibition at 1 µM [2] [%]	inhibition at 1 µM [3] [%]	inhibition at 1 µM [4] [%]	inhibition at 1 µM [5] [%]	inhibition at 1 µM [6] [%]	inhibition at 1 µM [7] [%]	inhibition at 1 µM [8] [%]	C4 score (inhibition of EGFR human) [2]	C9 score (inhibition of Lck human) [5]	C11 score (inhibition of Yes human) [7]	further results
O=C1CCc2cccc(c2)Nc2cc(ncn2)Nc2cccc(c2)CN2CCN1CC2 [Compound 43, 1,8,10,12,14,23-hexaazapentacyclo[21.2.2.1~3,7~.1~9,13~.1~15,19~]triaconta-3,5,7(30),9,11,13(29),15,17,19(28)-nonaen-22-one]	30 to 60	30 to 60	30 to 60	–	10 to 30	–	10 to 30	30 to 60	–	–	–	–
COc1cc2cc(c1)OCCCCCCOc1ccc(Br)cc1Nc1cc(ncn1)N2 [Compound 40, 1H,7H-6,2: 8,12-dimetheno-13,20,1,3,5,7-benzodioxatetraazacyclodocosine, 23-bromo-14,15,16,17,18,19-hexahydro-10-methoxy-]	–	–	–	–	–	–	–	–	4 (Score 4=>80% inhibition)	1 (Score 1=10-30% inhibition)	4 (Score 4=>80% inhibition)	C8 score (inhibition of GSK3β human) [9]: 1 (Score 1=10-30% inhibition); C6 score (inhibition of Flt3 human) [8]: 1 (Score 1=10-30% inhibition)
COc1ccc2cc1OCCCNC(=O)[C@H](CC(C)C)NC(=O)Cc1ccc(Cl)cc1Nc1cc(ncn1)N2 [Compound 12, 6, 2:12,8-dimetheno-7H-13,1,3,5,7,17,20-benzoxahexaazacyclotetracosine-18,21-dione, 25-chloro-1,14,15,16,17,19,20,22-octahydro-11-methoxy-19-(2-methylpropyl)-, (19S)-]	–	–	–	–	–	–	–	–	4 (Score 4=>80% inhibition)	4 (Score 4=>80% inhibition)	4 (Score 4=>80% inhibition)	C3 score (inhibition of cSRC human) [10]: 4 (Score 4=>80% inhibition); C10 score (inhibition of Lyn human) [1]: 4 (Score 4=>80% inhibition); C1 score (inhibition of Abl human) [4]: 2 (Score 2=30-60% inhibition); C4 score (inhibition of Fes human) [6]: 2 (Score 2=30-60% inhibition)

Continued, in another order:

inhibition at 1 µM [1] [%]	inhibition at 1 µM [2] [%]	inhibition at 1 µM [3] [%]	inhibition at 1 µM [4] [%]	inhibition at 1 µM [5] [%]	inhibition at 1 µM [6] [%]	inhibition at 1 µM [7] [%]	inhibition at 1 µM [8] [%]	Structure (SMILES)	C4 score (inhibition of EGFR human) [2]	C9 score (inhibition of Lck human) [5]	C11 score (inhibition of Yes human) [7]	further results
30 to 60	10 to 30	30 to 60	10 to 30	10 to 30	10 to 30	10 to 30	30 to 60	N#Cc1cnc2nc1Nc1cccc(c1)C(=O)NCCCCCOc1cccc(c1)N2 [Compound 18, 21-oxa-2,4,8,15,28-pentaazatetracyclo[20.3.1.1~3,7~.1~9,13~]octacosa-1(26),3,5,7(28),9,11,13(27),22,24-nonaene-6-carbonitrile, 14-oxo-]	–	–	–	–
–	–	–	10 to 30	–	10 to 30	–	30 to 60	O=C1COc2cccc(c2)Nc2nccc(n2)Nc2cccc(c2)CN1 [Compound 23, 18-oxa-2,4,8,15,25-pentaazatetracyclo[17.3.1.1~3,7~.1~9,13~]pentacosa-1(23),3,5,7(25),9,11,13(24),19,21-nonaen-16-one]	–	–	–	–
10 to 30	–	30 to 60	10 to 30	30 to 60	–	10 to 30	60 to 80	O=C1NCCCCCCOc2cccc(c2)Nc2ccnc(n2)Nc2cccc1c2 [Compound 21, 14-oxa-2,4,8,21,29-pentaazatetracyclo[21.3.1.1~3,7~.1~9,13~]nonacosa-1(27),3,5,7(29),9,11,13(28),23,25-nonaen-22-one]	–	–	–	inhibition at 1 µM ([10]; read-out: C3 score (inhibition of cSRC human)): 10 to 30%; inhibition at 1 µM ([9]; read-out: C8 score (inhibition of GSK3β human)): 10 to 30%
